Laboratory results reported in US11225657B2, “Synthetic auxotrophs with ligand dependent essential genes for biosafety” (priority 2015, dated 2022).

How the values were obtained:
Format in all cases: cell-based, E. coli
[1] = tested on: rapamycin-dependent mutant (uniRapR insertion in dnaN); experiment: Ligand-dependent growth of rapamycin-dependent dnaN-uniRapR insertion mutant at 42° C.; conditions: for nonspecific chemical complementation (growth): plates with ligand instead of rapamycin
Source text: Starting with a plasmid borne copy of wild type dnaN under constitutive expression, the uniRapR domain was inserted into 4 candidate insertion sites with a 3 amino acid linker library upstream and downstream of the uniRapR domain. The resulting libraries (all four insertion sites with their linker libraries) were pooled and transformed into a strain of E. coli with a mutation on the genomic copy of dnaN that made the protein temperature sensitive (dnaN protein from genome is non-functional at 42° C. and it is bactericidal lethal).
The transformants were grown at 42° C. (lethal temperature for genomic copy so as to force bacteria to rely on the plasmid copies with the uniRapR insertions) as well as with the addition of 10 uM rapamycin (to complement the function of any rapamycin-dependent insertional fusion dnaN mutants) and allowed to grow overnight.
The extracted plasmid DNA was re-transformed into fresh dnaN-temperature sensitive strains and grown on LB agar supplemented with rapamycin at 42° C. The next day colonies were picked and re-spotted onto LB agar plates with or without rapamycin and grown at 42° C. […] The biological replicates of a 10-fold serial dilution of the rapamycin-dependent mutant grown without rapamycin (clear columns) or with 2.5 micromolar rapamycin (columns with growth) were prepared. All growth took place at 42° C.

pheS.GL2 = experiment: Chemical complementation of growth of ligand-dependent strain pheS.GL2; conditions: LB agar plates
Method: (§1) A second positive selection at block 140 was performed in order to enrich for desirable ligand-dependent strains. Library members surviving the negative selection were collected, residual penicillin was washed away, and cells were spread onto LB agar plates containing complementing chemicals. Resulting colonies were screened at block 150 for ligand-dependent growth by replica-spotting onto LB agar plates with and without complementing chemicals. Strains that grew only in the presence of chemicals were chosen for further characterization.
(§2) In this example, the ligand-dependent strains were generated for 5 essential genes (pheS, dnaN, tyrS, metG, and adk). Each ligand-dependent strain carried between 3 and 7 mutations at the targeted essential gene (Table 1). A mixture of 4 small molecules was used to generate the ligand-dependent strains. Each resulting strain was tested against each small molecule individually. The most promiscuous strain, metG.GL15, was complemented by all 4 ligands. Other mutants responded to 2 or 3 ligands. Additionally, escape frequency was measured on media lacking any of the 4 ligands. The highest escape frequency was 8×10^−4 for adk.GL1, while the lowest escape frequency was 3×10^−9 for pheS.GL2.
The ligand-dependent strain pheS.GL2 was derived from a directed evolution procedure using both targeted and random mutagenesis. […]

tyrS.GL7 = experiment: Chemical complementation of growth of ligand-dependent strain tyrS.GL7
Method: as §1, §2
The ligand-dependent strain tyrS.GL7 and metG.GL15 were generated in under 2 weeks with a single cycle of protein engineering. […]

metG.GL15 = experiment: Chemical complementation of growth of ligand-dependent strain metG.GL15; conditions: panel of 30 additional ligands
Method: as §1, §2
To characterize the specificity of the produced ligand-dependent strains towards ligands, all strains were examined for complementation by a panel of 30 additional ligands. […]

[2] = tested on: dnaN-intein-iFKBP fusion mutants; experiment: Growth of dnaN-intein-iFKBP mutants with complementing ligands at 42° C.; conditions: LB agar
Method: A variety of saturation mutagenesis libraries targeting a combination of surface exposed and semi-buried residues on the intein structure were then designed, ignoring the iFKBP domain as well as the dnaN sequence. The resulting plasmid library was then transformed into dnaN-temperature sensitive strains (dnaN-temp sensitive on the genome). The resulting transformants were grown on LB agar plates containing 5 chemicals: rapamycin, saccharin, acetaminophen, raspberry ketone, and benzothiazole. These chemicals were chosen based on being either useful commercially or likely to result in the desired phenotype. As before the library was grown at 42° C. so that the strains would have to rely on the plasmid borne mutagenized copies of the dnaN-intein-iFKBP fusion proteins.
The next day the libraries were scraped, and transferred to fresh media for a penicillin technique counter selection performed exactly as described before with FIG. 2 and FIG. 3. After the negative selection, intact cells were mini-prepped and the DNA was re-transformed into fresh cells and the transformants were grown on the same chemicals as indicated above at 42° C.
The next day, colonies were picked, serially diluted tenfold and spotted onto plain LB agar plates and LB agar plates containing a pool of candidate complementing ligands and grown at 42° C. (to uncover phenotype of plasmid born copy of dnaN). […]

CO[C@H]1C[C@@H]2CC[C@@H](C)[C@@](O)(O2)C(=O)C(=O)N2CCCC[C@H]2C(=O)O[C@H]([C@H](C)C[C@@H]2CC[C@@H](O)[C@H](OC)C2)CC(=O)[C@H](C)/C=C(\C)[C@@H](O)[C@@H](OC)C(=O)[C@H](C)C[C@H](C)/C=C/C=C/C=C/1C [rapamycin]
rapamycin concentration of highest activity (dose-dependent growth) ([1]; 42° C.): 1 to 10 µM

c1ccc2[nH]ccc2c1 [indole]
complementation of growth (pheS.GL2; 0.5 mM indole): strongly complemented
complementation of growth (tyrS.GL7): complemented
nonspecific chemical complementation (growth) [1]: no growth was detected

COC(=O)[C@@H](N)Cc1c[nH]cn1 [L-histidine methyl ester]
complementation of growth (metG.GL15): complement

O=C(O)Cc1c[nH]c2ccccc12 [Indole-3-acetic acid]
complementation of growth (metG.GL15): complement

c1ccc2scnc2c1 [benzothiazole]
complementation of growth (pheS.GL2; 1 mM benzothiazole): strongly complemented
colony size relative to no ligand (by eye) [2]: 2-5 times
concentration range of dose-dependent growth (tyrS.GL7): 250 to 1000 µM
nonspecific chemical complementation (growth) [1]: no growth was detected
